In ChEMBL document CHEMBL4651402, “Screening of ~5500 FDA-approved drugs and clinical candidates for anti-SARS-CoV-2 activity” (2021):

Assays:
[1] = in vitro; conditions: chlorocebus sabaeus, Vero E6 (Vero C1008) cells
[2] = system: SARS-CoV-2; assay: microbe, parasite or virus in culture; assay type: functional, organism-based, Chlorocebus sabaeus, Vero C1008; conditions: Severe acute respiratory syndrome coronavirus 2, Vero C1008, 48 h
[3] = system: SARS-CoV-2; assay: microbe, parasite or virus in culture; conditions: Severe acute respiratory syndrome coronavirus 2, Vero C1008, 48 h

Row | Structure (SMILES) | CC50 at 48 h ([1]; CC50) [µM] | CC50 at 48 h ([1]; pCC50) [µM] | IC50 ([2]; read-out: IC50) [µM] | IC50 ([2]; read-out: pIC50 (converted)) [µM] | IC50 [3] [µM] | IC50 ([3]; read-out: pIC50 (converted)) [µM]
1 | CCN(CC)CCCC(C)Nc1ccnc2cc(Cl)ccc12 (stereo not given) [CHLOROQUINE] | ~38.7 | ~38.9 | ~9.46 | ~9.55 | ~5.86 | ~5.89
2 | CN(C)CCOC(C)(c1ccccc1)c1ccc(Cl)cc1 (stereo not given) [CHLORPHENOXAMINE] | 28.2 | 28.2 | ~14.5 | ~14.5 | 19.5 | 19.5
3 | CN(C)CC/C=C1/c2ccccc2Sc2ccc(Cl)cc21 [CHLORPROTHIXENE] | 13.8 | 13.8 | > 100 | > 100 | 7.08 | 7.08
4 | Clc1ccc(C(c2ccccc2)N2CCN(C/C=C/c3ccccc3)CC2)cc1 (stereo not given) [CLOCINIZINE] | 21.9 | 21.9 | 20.9 | 20.9 | > 100 | > 100
5 | CN1CCC(=C2c3ccccc3Oc3ccc(Cl)cc32)CC1 [CLOPIPAZAN] | 15 | 14.8 | > 100 | > 100 | > 20 | > 20
6 | CCN(CC)CCNC(=O)c1cc(Cl)c(NC(=O)COc2ccc(Cl)cc2)cc1OC [CLOXACEPRIDE] | 2.85 | 2.82 | > 100 | > 100 | 3.63 | 3.63
7 | C[C@H]1[C@H]2CC[C@H]3[C@@H]4CC=C5C[C@@H](N(C)C)CC[C@]5(C)[C@H]4CC[C@]23CN1C [CONESSINE] | 34.7 | 34.7 | > 25.1 | > 25.1 | 12 | 12
8 | COc1cc(/C=C/C(=O)CC(=O)/C=C/c2ccc(O)c(OC)c2)ccc1O [CURCUMIN] | 14.8 | 14.8 | > 100 | > 100 | > 100 | > 100
9 | NC(=O)C(c1ccccc1)(c1ccccc1)[C@@H]1CCN(CCc2ccc3c(c2)CCO3)C1 [DARIFENACIN] | 56.2 | 56.2 | > 100 | > 100 | > 25.1 | > 25.1
10 | CCN(CC)CCOC1(c2ccccc2)CCN(CCNc2ccccc2)CC1 [DIAMOCAINE] | 46.8 | 46.8 | 22.4 | 22.4 | ~9.55 | ~9.55
11 | CCCCOc1cc(C(=O)NCCN(CC)CC)c2ccccc2n1 [DIBUCAINE] | ~39.6 | ~39.8 | ~29.5 | ~29.5 | 29.1 | 28.8
12 | Oc1cc2c(cc1O)[C@H]1c3ccccc3CN[C@@H]1CC2 [DIHYDREXIDINE] | 18.6 | 18.6 | > 100 | > 100 | 7.94 | 7.94
13 | COc1cc(C(=O)OCCCN2CCCN(CCCOC(=O)c3cc(OC)c(OC)c(OC)c3)CC2)cc(OC)c1OC [DILAZEP] | ~28.2 | ~28.2 | > 100 | > 100 | > 100 | > 100
14 | O=C(Nc1ccccc1)OCC(CN1CCCCC1)OC(=O)Nc1ccccc1 (stereo not given) [DIPERODON] | > 25.1 | > 25.1 | > 25.1 | > 25.1 | 15.1 | 15.1
15 | c1ccc(C(c2ccccc2)N2CCN(CCCC3(c4ccccc4)OCCO3)CC2)cc1 [DOTARIZINE] | 17.4 | 17.4 | 10 | 10 | > 20 | > 20
16 | CN(C)CC/C=C1\c2ccccc2CSc2ccccc21 [DOTHIEPIN] | 20 | 20 | > 25.1 | > 25.1 | 16.6 | 16.6
17 | COc1cccc2c1C(=O)c1c(O)c3c(c(O)c1C2=O)C[C@@](O)(C(=O)CO)C[C@@H]3O[C@H]1C[C@H](N)[C@H](O)[C@H](C)O1 [DOXORUBICIN] | 64.6 | 64.6 | ~33.1 | ~33.1 | 8.04 | 7.94
18 | NC(=O)C1CN(CCCCC(c2ccc(F)cc2)c2ccc(F)cc2)CCN1CC(=O)Nc1c(Cl)cc(N)cc1Cl (stereo not given) [DRAFLAZINE] | 9.66 | 9.55 | > 100 | > 100 | > 100 | > 100
19 | CCCCc1oc2ccc(NS(C)(=O)=O)cc2c1C(=O)c1ccc(OCCCN(CCCC)CCCC)cc1 [DRONEDARONE] | 3.85 | 3.8 | > 100 | > 100 | ~3.02 | ~3.02
20 | O=C(N[C@H]1CN2CCC1CC2)c1cc2cccc(Cl)c2s1 [ENCENICLINE] | 20.9 | 20.9 | > 100 | > 100 | > 100 | > 100
